{"source": "patent US5098933A", "about": "“Pharmaceutically useful Michael addition products of unsaturated aldehydes and ketones and ascorbic acid” (Theracel Corporation, priority 1990, dated 1992)", "key": {"splenocytes [1]": {"test_system": "splenocytes", "experiment": "Immunotoxicity--Multi-dose: total spleen cell counts (Coulter Counter)", "type": "in vivo, mice", "procedure": "(§1) The immunotoxicological potential of KCPBL was evaluated in this experiment in which the study drug was administered to CD-1 mice for fourteen days (100 or 1000 mg/kg/day), either perorally (by gavage) or intravenously (tail vein). On the fifteenth day, the mice were weighed and sacrificed. The spleen, lungs, liver, kidneys and thymus were removed from each animal, fixed in formalin and histopathologically evaluated. In addition, a differential white blood cell count was obtained for a peripheral blood sample as well as the following tests performed: spleen cell counts (performed with Coulter Counter) and lymphocyte stimulation assays using PHA, CON-A and PWM techniques.\n(§2) The study incorporated five treatment groups into its design: group 1, sham intravenous control; group 2, 100 mg/kg/day perorally; group 3, 1000 mg/kg/day intravenously; group 4, 100 mg/kg/day perorally, and, group 5, 100 mg/kg/day intravenously. Mice were administered KCPBL daily for a total of fourteen days via the oral (0.2 ml of a 147.5 mg/ml solution or a 29.5 mg/ml solution by gavage) and intravenous route (0.2 ml of 147.5 mg/ml solution or a 29.5 mg/ml solution by tail vein) to achieve a dose of 100 or 1000 mg/kg, respectively. The test dose was prepared fresh daily and dissolved in sterile non-pyrogenic saline. On the fifteenth day the mice were weighed, sacrificed, and the spleens, lungs, livers, kidneys and thymuses removed. These organs were weighed and, except for the spleens, the formalin-fixed organs were analyzed by a veterinary pathologist. Only two randomly-selected sets of animal organs per treatment group were histopathologically evaluated since the remaining three animals were used to isolate splenic lymphocytes for use in cellular immunoassays.\n(§3) A leukocyte differential was obtained on peripheral blood samples and spleen cell counts (performed with Coulter Counter), and an IL-2 induction assessment as well as standard lymphocyte stimulation assays using PHA, CON-A and PWM conducted."}, "splenic lymphocytes": {"test_system": "splenic lymphocytes", "experiment": "Immunotoxicity--Multi-dose: lymphocyte blastogenesis / stimulation (PHA, Con A, PWM)", "type": "in vivo, mice", "procedure": "as §1\nas §2, with “The study incorporated five treatment groups into its design: group 1, sham intravenous control; group 2, 100 mg/kg/day perorally; group 3, 1000 mg/kg/day intravenously; group 4, 100 mg/kg/day perorally, and, group 5, 100 mg/kg/day intravenously.” left out\nas §3\n(§4) The individual spleens of three mice from control and test groups were processed to isolate lymphocytes and the protocols for lymphocyte blastogenesis, IL-2 induction and assay were performed. The remaining two mice in each group were sacrificed and their lungs, liver, kidney, and spleen were fixed in formalin and sent to AnMed Biosafe for histopathologic examination."}, "IL-2": {"test_system": "IL-2", "experiment": "Immunotoxicity--Multi-dose: IL-2 induction", "type": "in vivo, mice", "procedure": "as §2, §3, §4"}, "[2]": {"experiment": "Pharmacokinetics of 3H-KCPBL in mice, plasma levels", "type": "in vivo", "settings": "intravenous, mouse, through 6 hours", "procedure": "The objectives of these tests were to evaluate the pharmacokinetics of radiolabeled KCPBL when administered either perorally or intravenously to mice.\n3H-KCPBL was prepared from the pure drug substance KCPBL by an exchange procedure using high specific activity tritiated water. The product was purified by reverse phase high performance liquid chromatography and then freeze-dried. Analysis was carried out on ^3 H-KCPBL reconstituted in water. Specific activity was not less than 185 GBg/mmol or 5 Ci/mmol and the molecular weight of the product is 258. HPLC analysis for purity was performed using a Zorbax C8 column (25 cm×4.6) eluting with water: acetonitrile (930:70).\nIn the mouse studies, 3H-KCPBL was dissolved in sterile pyrogen-free saline containing […] of non-radiolabeled KCPBL. The final concentration of the test article in an injection volume of 0.1 ml was 66.6 mcCi. One tenth ml was administered intravenously for plasma level and tissue biodistribution studies. Peroral dosages were prepared in a manner consistent with this approach.\nMice were given intravenous doses of 3H-KCPBL to evaluate its biodistribution in this laboratory animal model."}, "splenocytes [3]": {"test_system": "splenocytes", "experiment": "Immunomodulation panel: total splenocyte counts, antigen stimulated mice", "type": "in vivo, C57BL/6J mice", "procedure": "Daily intraperitoneal injections of KCPBL were administered to normal animals and immunological responsiveness to mitogens and specific antigen evaluated.\nThe test compound was weighed out immediately before use and dissolved in the injection vehicle. This solution was sterile-filtered using a 0.22 micron filter and the appropriate dose injected into mice in a 0.5 ml volume. The dose was individually calculated for each animal, based on animal weight on the first day of the experiment.\nInbred C57BL/6J mice were obtained from Jackson Laboratories, Bar Harbor, Me. The animals were held for one week before use in an experiment. Prior to commencement of a study, the animals were placed into groups and weighed.\nGroup size ten male mice per dosage group.\nDoses and schedule--Doses were selected to bracket the range generally known to be immunostimulatory in past experiments, 1, 10, and […] daily for four days.\nImmunization--All animals except for sham controls were injected with 0.5 ml of a 2% suspension of sheep erythrocyte on day zero. This occurred two days following any pretreatment and the day before the initiation of study drug administration.\nSacrifice--Animals were sacrificed by cervical dislocation on day five. […]\nAs an assessment of immunopathology in the above screening test panel, the cellularity of the spleen was evaluated by determination of the total number of splenocytes harvested. Humoral-mediated immunity was measured by enumerating IgM plaque-forming cells to the T-dependent antigen sheep erythrocytes. Cell-mediated immunity was evaluated as described above by determination of the ability of the splenocytes to produce the lymphokine interleukin-2 in response to stimulation by the mitogen concanavalin-A. Another measurement of cell-mediated immunity was the responsiveness of the splenic lymphocytes to the mitogens concanavalin-A (Con-A); phytohemagglutinin (PHA) and pokeweed mitogen (PWM) in the lymphocyte blastogenesis assay. […] The responsiveness of the cells was measured by the uptake of radiolabeled 14C-thymidine."}, "[4]": {"settings": "treated vs sham-injected controls"}}, "data": [{"smiles": "O=C1CCC(C2(O)C(=O)OC3C(O)COC32O)C1", "note": "(stereo not shown) [KCPBL]", "values": [{"measurement": "Total Splenocytes", "setting": "splenocytes [1]; 100 mg/kg IV (group 5)", "value": "4.03 ± 0.33 × 10^7 Cells"}, {"measurement": "Total Splenocytes", "setting": "splenocytes [1]; 100 mg/kg P.O. (group 4)", "value": "4.15 ± 0.18 × 10^7 Cells"}, {"measurement": "Total Splenocytes", "setting": "splenocytes [1]; 1000 mg/kg IV (group 3)", "value": "3.12 ± 0.67 × 10^7 Cells"}, {"measurement": "Total Splenocytes", "setting": "splenocytes [1]; 1000 mg/kg P.O. (group 2)", "value": "3.73 ± 0.30 × 10^7 Cells"}, {"measurement": "total spleen cell counts, significance", "setting": "splenocytes [1]; treated vs control", "value": "not statistically significantly different"}, {"measurement": "Lymphocyte Blastogenesis, Con A", "setting": "splenic lymphocytes; 100 mg/kg IV (group 5)", "value": "17292 ± 3202"}, {"measurement": "Lymphocyte Blastogenesis, PHA", "setting": "splenic lymphocytes; 100 mg/kg IV (group 5)", "value": "8513 ± 3950"}, {"measurement": "Lymphocyte Blastogenesis, PWM", "setting": "splenic lymphocytes; 100 mg/kg IV (group 5)", "value": "7125 ± 3899"}, {"measurement": "Lymphocyte Blastogenesis, RPMI", "setting": "splenic lymphocytes; 100 mg/kg IV (group 5)", "value": "234 ± 116"}, {"measurement": "Lymphocyte Blastogenesis, Con A", "setting": "splenic lymphocytes; 100 mg/kg P.O. (group 4)", "value": "18948 ± 3543"}, {"measurement": "Lymphocyte Blastogenesis, PHA", "setting": "splenic lymphocytes; 100 mg/kg P.O. (group 4)", "value": "13432 ± 4075"}, {"measurement": "Lymphocyte Blastogenesis, PWM", "setting": "splenic lymphocytes; 100 mg/kg P.O. (group 4)", "value": "6733 ± 1181"}, {"measurement": "Lymphocyte Blastogenesis, RPMI", "setting": "splenic lymphocytes; 100 mg/kg P.O. (group 4)", "value": "307 ± 52"}, {"measurement": "Lymphocyte Blastogenesis, Con A", "setting": "splenic lymphocytes; 1000 mg/kg IV (group 3)", "value": "14471 ± 2913"}, {"measurement": "Lymphocyte Blastogenesis, PHA", "setting": "splenic lymphocytes; 1000 mg/kg IV (group 3)", "value": "4473 ± 1181"}, {"measurement": "Lymphocyte Blastogenesis, PWM", "setting": "splenic lymphocytes; 1000 mg/kg IV (group 3)", "value": "4402 ± 3641"}, {"measurement": "Lymphocyte Blastogenesis, RPMI", "setting": "splenic lymphocytes; 1000 mg/kg IV (group 3)", "value": "203 ± 122"}, {"measurement": "Lymphocyte Blastogenesis, Con A", "setting": "splenic lymphocytes; 1000 mg/kg P.O. (group 2)", "value": "15151 ± 627"}, {"measurement": "Lymphocyte Blastogenesis, PHA", "setting": "splenic lymphocytes; 1000 mg/kg P.O. (group 2)", "value": "8189 ± 1602"}, {"measurement": "Lymphocyte Blastogenesis, PWM", "setting": "splenic lymphocytes; 1000 mg/kg P.O. (group 2)", "value": "4896 ± 1547"}, {"measurement": "Lymphocyte Blastogenesis, RPMI", "setting": "splenic lymphocytes; 1000 mg/kg P.O. (group 2)", "value": "244 ± 97"}, {"measurement": "LSA response to PHA, CON-A and PWM lectins", "setting": "splenic lymphocytes; [4]", "value": "comparable"}, {"measurement": "IL-2", "setting": "IL-2; 100 mg/kg IV (group 5)", "value": 41.15, "unit": "HMU/MI"}, {"measurement": "IL-2", "setting": "IL-2; 100 mg/kg P.O. (group 4)", "value": "44.81 ± 20.8", "unit": "HMU/MI"}, {"measurement": "IL-2", "setting": "IL-2; 1000 mg/kg IV (group 3)", "value": "18.12 ± 10.50", "unit": "HMU/MI"}, {"measurement": "IL-2", "setting": "IL-2; 1000 mg/kg P.O. (group 2)", "value": "21.11 ± 13.69", "unit": "HMU/MI"}, {"measurement": "IL-2 production", "setting": "IL-2; [4]", "value": "comparable"}, {"measurement": "serum level profile", "setting": "[2]", "value": "immediate peak serum drug level followed by a steep decline"}, {"measurement": "Splenocytes", "setting": "splenocytes [3]; 1.0 mg/kg i.p.", "value": "4.34 ± 0.7 ×10^7"}, {"measurement": "Splenocytes", "setting": "splenocytes [3]; 10 mg/kg i.p.", "value": "3.59 ± 0.8 ×10^7"}, {"measurement": "Splenocytes", "setting": "splenocytes [3]; 100 mg/kg i.p.", "value": "3.62 ± 0.4 ×10^7"}]}]}
